Experimental data taken from patent US8551956B2, “Compositions containing peptides with non-natural amino acids and methods of use” (Avon Products, Inc., priority 2006, dated 2013).

Test system: Fibronectin
Test: Stimulation of fibronectin production in Normal Human Dermal Fibroblasts-Adult, competitive inhibition ELISA of conditioned medium
Format: cell-based
Conditions: in vitro, concentration not given
Procedure: Normal Human Dermal Fibroblasts-Adult (Cascade Biologics) were cultured in 12-well tissue culture treated plates and treated for 72 hours in the presence or absence of test actives. Following incubation, the conditioned medium from each treatment was collected in a 1.7 mL microcentrifuge tube and frozen at −80° C. for subsequent analysis. The assay was in the format of a competitive inhibition ELISA.
Human fibronectin was pre-coated on the wells except for one row, which served as a reference. Standards and samples were pre-incubated with polyclonal rabbit antibody to human fibronectin. The polyclonal antibody was bound to the fibronectin in the standard dilutions, and in the sample, if present. The mixture was then transferred to the human fibronectin-coated plate. Free rabbit anti-human fibronectin was bound to the fibronectin on the plate. Goat anti-rabbit IgG HRP-conjugate reacted with bound rabbit anti-fibronectin. When HRP substrate was added, a blue color developed. The reaction was stopped by the addition of an acid, changing the color to yellow. This color was quantitated using a microplate reader set at 450 nm. The intensity of the color was inversely proportional to the amount of fibronectin in the original sample.

In the case of NCCCC[C@H](N)C(=O)NCCCCC(=O)NCCCC[C@H](N)C(=O)O [KavaK], the “Fibronectin production, more compared to untreated control fibroblasts” value is reported as 28%.
